In patent US10183943B2, “Heterocyclic compounds and their use in preventing or treating bacterial infections” (MUTABILIS, priority 2015, dated 2019):
Read-outs that look alike come from different tables or passages of the source.

Key:
AmpC P. aeruginosa = AmpC P. aeruginosa (Pseudomonas aeruginosa, UniProt P24735); assay: β-lactamase inhibitory activity, determination of IC50 (nitrocefin hydrolysis)
CTX-M-15 = molecular target: T1, CTX-M-15 (Escherichia coli, UniProt Q9EXV5); assay: as above; format: biochemical
T1 construct: made in house; host or cells: E. coli
T1 sequence (Q9EXV5 entry or part of it): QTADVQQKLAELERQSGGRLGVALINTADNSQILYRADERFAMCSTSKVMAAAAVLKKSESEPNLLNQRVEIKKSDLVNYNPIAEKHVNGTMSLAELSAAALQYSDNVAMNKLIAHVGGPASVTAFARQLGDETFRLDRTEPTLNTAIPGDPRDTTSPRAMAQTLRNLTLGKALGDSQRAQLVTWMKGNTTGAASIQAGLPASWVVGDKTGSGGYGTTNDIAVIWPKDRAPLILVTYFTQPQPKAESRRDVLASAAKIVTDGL

TEM-1 = molecular target: T2, TEM-1 (Escherichia coli, UniProt P62593); assay: as above; format: biochemical
T2 construct: made in house; host or cells: E. coli
T2 sequence (P62593 24-286 limits assumed): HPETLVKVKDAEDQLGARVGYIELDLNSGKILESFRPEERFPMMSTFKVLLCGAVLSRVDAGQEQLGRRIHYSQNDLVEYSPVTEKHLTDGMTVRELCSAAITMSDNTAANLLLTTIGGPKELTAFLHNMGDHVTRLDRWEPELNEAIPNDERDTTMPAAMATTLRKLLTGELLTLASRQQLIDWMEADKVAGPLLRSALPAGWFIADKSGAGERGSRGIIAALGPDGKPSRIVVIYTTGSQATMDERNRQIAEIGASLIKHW

OXA-1 = molecular target: T3, OXA-1 (Escherichia coli, UniProt P13661); assay: as above; format: biochemical
T3 construct: made in house; host or cells: E. coli
T3 sequence (P13661 26-276): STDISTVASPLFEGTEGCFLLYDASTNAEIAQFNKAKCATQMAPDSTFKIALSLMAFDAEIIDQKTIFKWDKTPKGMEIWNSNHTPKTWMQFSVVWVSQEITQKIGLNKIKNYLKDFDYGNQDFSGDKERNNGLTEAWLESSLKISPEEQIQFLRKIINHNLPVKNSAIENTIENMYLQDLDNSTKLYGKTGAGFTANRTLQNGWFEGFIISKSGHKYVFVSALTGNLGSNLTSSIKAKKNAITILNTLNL

OXA-48 = molecular target: T4, OXA-48 (Klebsiella pneumoniae, UniProt Q6XEC0); assay: as above; format: biochemical
T4 construct: made in house; host or cells: E. coli
T4 sequence (Q6XEC0 23-265 limits assumed): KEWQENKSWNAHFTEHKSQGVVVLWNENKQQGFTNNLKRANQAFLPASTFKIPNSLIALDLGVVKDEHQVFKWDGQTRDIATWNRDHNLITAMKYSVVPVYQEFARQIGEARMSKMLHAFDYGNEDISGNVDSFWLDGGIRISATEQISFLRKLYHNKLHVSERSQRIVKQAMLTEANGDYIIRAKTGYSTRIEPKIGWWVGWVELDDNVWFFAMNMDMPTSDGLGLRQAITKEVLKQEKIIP

OXA-15 = molecular target: T5, OXA-15 (Pseudomonas aeruginosa, UniProt Q51574); assay: biochemical
T5 construct: made in house; host or cells: E. coli
T5 sequence (Q51574 22-275): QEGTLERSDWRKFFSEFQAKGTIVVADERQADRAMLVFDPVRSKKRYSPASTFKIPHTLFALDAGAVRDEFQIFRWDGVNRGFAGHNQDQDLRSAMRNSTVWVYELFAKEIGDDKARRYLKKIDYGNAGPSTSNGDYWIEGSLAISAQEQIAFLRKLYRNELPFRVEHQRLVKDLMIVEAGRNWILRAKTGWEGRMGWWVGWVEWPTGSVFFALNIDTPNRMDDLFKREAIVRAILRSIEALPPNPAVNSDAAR

SHV-1 = molecular target: T6, SHV-1 (Klebsiella pneumoniae, UniProt P0AD64); assay: β-lactamase inhibitory activity, determination of IC50 (nitrocefin hydrolysis); format: biochemical
T6 construct: made in house; host or cells: E. coli
T6 sequence (P0AD64 22-286): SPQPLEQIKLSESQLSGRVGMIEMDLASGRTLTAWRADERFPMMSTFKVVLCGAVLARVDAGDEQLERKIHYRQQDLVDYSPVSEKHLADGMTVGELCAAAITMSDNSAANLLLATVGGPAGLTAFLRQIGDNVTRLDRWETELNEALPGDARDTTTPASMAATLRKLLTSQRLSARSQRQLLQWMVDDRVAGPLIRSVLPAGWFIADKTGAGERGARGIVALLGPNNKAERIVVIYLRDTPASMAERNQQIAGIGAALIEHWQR

[1] = system: E. cloacae UFR70 (TEM-1, CTX-M-15, CMY-2, OXA-1, Porin loss); assay: MIC of compounds alone, broth microdilution; format: cell-based; details: Enterobacter cloacae, read-out: MIC compounds of the invention alone
Method in brief: (§1)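 Read-out: lowest compound concentration with no growth by visual inspection. CLSI M7-A7 broth microdilution, cation-adjusted Mueller-Hinton broth, inoculum 5×10^5 cfu/mL from log-phase culture, 16-20 h, 35° C, ambient air; compound tested without β-lactam.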

[2] = system: E. coli UFR74 (SHV-1, DHA-1); assay: MIC of compounds alone, broth microdilution; format: cell-based; details: Escherichia coli, read-out: MIC compounds of the invention alone
Method in brief: as §1

[3] = system: K. pneumoniae 160143 (TEM-1, SHV-1, CTX-M-15, KPC-2, OXA-1); assay: MIC of compounds alone, broth microdilution; format: cell-based; details: Klebsiella pneumoniae, read-out: MIC compounds of the invention alone
Method in brief: as §1

[4] = system: E. cloacae 260508 (TEM-1, CTX-M-15); assay: MIC of compounds alone, broth microdilution; format: cell-based; details: Enterobacter cloacae, read-out: MIC compounds of the invention alone
Method in brief: as §1

[5] = system: E. cloacae UFR51 (SHV-12, IMP-8); assay: MIC of compounds alone, broth microdilution; format: cell-based; details: Enterobacter cloacae, read-out: MIC compounds of the invention alone
Method in brief: as §1

[6] = system: E. coli 190317 (TEM-1, SHV-12, CTX-M-15, OXA-1); assay: MIC of compounds alone, broth microdilution; format: cell-based; details: Escherichia coli, read-out: MIC compounds of the invention alone
Method in brief: as §1

[7] = system: K. pneumoniae 200047 (TEM-1, SHV-32, CTX-M-15, OXA-1); assay: MIC of compounds alone, broth microdilution; format: cell-based; details: Klebsiella pneumoniae, read-out: MIC compounds of the invention alone
Method in brief: as §1

[8] = system: E. coli UFR32 (TEM-1, VEB-1, OXA-10); assay: MIC of compounds alone, broth microdilution; format: cell-based; details: Escherichia coli, read-out: MIC compounds of the invention alone
Method in brief: as §1

E. cloacae P99 (AmpC) = assay: MIC of compounds alone, broth microdilution; format: cell-based; details: Enterobacter cloacae, read-out: MIC compounds of the invention alone
Method in brief: as §1

[9] = system: K. pneumoniae UFR39 (CTX-M-15, NDM-1); assay: MIC of compounds alone, broth microdilution; format: cell-based; details: Klebsiella pneumoniae, read-out: MIC compounds of the invention alone
Method in brief: as §1

[10] = system: K. pneumoniae BAA-1898 (TEM-1, SHV-11, SHV-12, KPC-2); assay: MIC of compounds alone, broth microdilution; format: cell-based; details: Klebsiella pneumoniae
Method in brief: as §1

[11] = system: K. pneumoniae 6299 (TEM-1, SHV-11, OXA-163); assay: MIC of compounds alone, broth microdilution; format: cell-based; details: Klebsiella pneumoniae, read-out: MIC compounds of the invention alone
Method in brief: as §1

[12] = system: K. pneumoniae UFR68 (TEM-1, SHV-11, CTX-M-15, KPC-3); assay: MIC of compounds alone, broth microdilution; format: cell-based; details: Klebsiella pneumoniae, read-out: MIC compounds of the invention alone
Method in brief: as §1

[13] = system: E. cloacae UFR85 (TEM-1, CTX-M-15, AmpC); assay: MIC of compounds alone, broth microdilution; format: cell-based; details: Enterobacter cloacae, read-out: MIC compounds of the invention alone
Method in brief: as §1

[14] = system: K. pneumoniae UFR77 (CMY-2); assay: MIC of compounds alone, broth microdilution; format: cell-based; details: Klebsiella pneumoniae, read-out: MIC compounds of the invention alone
Method in brief: as §1

[15] = system: E. coli UFR18 (CTX-M-15, OXA-204); assay: MIC of compounds alone, broth microdilution; format: cell-based; details: Escherichia coli, read-out: MIC compounds of the invention alone
Method in brief: as §1

[16] = system: E. coli UFR61O (TEM-1, KPC-2); assay: MIC of compounds alone, broth microdilution; format: cell-based; details: Escherichia coli, read-out: MIC compounds of the invention alone
Method in brief: as §1

[17] = system: K. pneumoniae UFR24 (TEM-1, SHV-2, SHV-11, OXA-1, OXA-48, OXA-47); assay: MIC of compounds alone, broth microdilution; format: cell-based; details: Klebsiella pneumoniae, read-out: MIC compounds of the invention alone
Method in brief: as §1

E. coli RGN238 (OXA-1) = assay: MIC of compounds alone, broth microdilution; format: cell-based; details: Escherichia coli, read-out: MIC compounds of the invention alone
Method in brief: as §1

[18] = system: P. aeruginosa CIP107051 (TEM-24); assay: MIC of compounds alone, broth microdilution; format: cell-based; details: Pseudomonas aeruginosa
Method in brief: as §1

[19] = system: K. oxytoca UFR21 (TEM-1, CTX-M-15, OXA-48); assay: MIC of compounds alone, broth microdilution; format: cell-based; details: Klebsiella oxytoca, read-out: MIC compounds of the invention alone
Method in brief: as §1

[20] = system: E. coli UFR41 (TEM-1, CTX-M-15, CMY-2, OXA-1, NDM-4); assay: MIC of compounds alone, broth microdilution; format: cell-based; details: Escherichia coli, read-out: MIC compounds of the invention alone
Method in brief: as §1

[21] = system: E. coli 131119 (TEM-1, OXA-48); assay: MIC of compounds alone, broth microdilution; format: cell-based; details: Escherichia coli, read-out: MIC compounds of the invention alone
Method in brief: as §1

AmpC (P99) = AmpC (P99) (Enterobacter cloacae, UniProt P05364); assay: β-lactamase inhibitory activity, determination of IC50 (nitrocefin hydrolysis)
AmpC (P99), sequence (P05364 21-381): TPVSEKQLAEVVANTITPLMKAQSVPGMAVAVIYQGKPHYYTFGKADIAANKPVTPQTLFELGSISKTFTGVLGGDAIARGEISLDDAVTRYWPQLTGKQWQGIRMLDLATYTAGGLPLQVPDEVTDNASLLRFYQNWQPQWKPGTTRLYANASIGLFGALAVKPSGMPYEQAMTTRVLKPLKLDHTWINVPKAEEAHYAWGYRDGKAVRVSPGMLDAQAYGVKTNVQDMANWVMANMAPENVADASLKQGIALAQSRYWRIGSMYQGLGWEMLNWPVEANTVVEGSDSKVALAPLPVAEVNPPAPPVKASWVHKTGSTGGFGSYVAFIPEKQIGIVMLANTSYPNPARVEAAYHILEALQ

KPC-2 = molecular target: T7, KPC-2 (Klebsiella pneumoniae, UniProt Q9F663); assay: as above; format: biochemical
T7 construct: made in house; host or cells: E. coli
T7 sequence (Q9F663 25-293 limits assumed): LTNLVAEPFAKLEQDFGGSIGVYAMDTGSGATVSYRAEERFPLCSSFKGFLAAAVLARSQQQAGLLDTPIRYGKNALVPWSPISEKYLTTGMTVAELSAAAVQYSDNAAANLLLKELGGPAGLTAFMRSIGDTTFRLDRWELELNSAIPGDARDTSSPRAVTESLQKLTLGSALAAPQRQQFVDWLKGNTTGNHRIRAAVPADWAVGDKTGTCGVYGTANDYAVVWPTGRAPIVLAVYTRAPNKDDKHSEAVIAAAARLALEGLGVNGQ

OXA-11 = molecular target: T8, OXA-11 (Pseudomonas aeruginosa, UniProt Q06778); assay: as above; format: biochemical
T8 construct: made in house; host or cells: E. coli
T8 sequence (Q06778 21-266): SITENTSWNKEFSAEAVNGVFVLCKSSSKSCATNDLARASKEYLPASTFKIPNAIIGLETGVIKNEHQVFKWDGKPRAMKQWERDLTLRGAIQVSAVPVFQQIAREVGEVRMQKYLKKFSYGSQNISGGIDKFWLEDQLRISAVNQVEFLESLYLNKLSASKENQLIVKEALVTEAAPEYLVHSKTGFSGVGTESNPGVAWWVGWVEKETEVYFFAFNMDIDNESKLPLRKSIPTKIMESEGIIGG

AmpC P. aeruginosa, sequence (P24735 27-397): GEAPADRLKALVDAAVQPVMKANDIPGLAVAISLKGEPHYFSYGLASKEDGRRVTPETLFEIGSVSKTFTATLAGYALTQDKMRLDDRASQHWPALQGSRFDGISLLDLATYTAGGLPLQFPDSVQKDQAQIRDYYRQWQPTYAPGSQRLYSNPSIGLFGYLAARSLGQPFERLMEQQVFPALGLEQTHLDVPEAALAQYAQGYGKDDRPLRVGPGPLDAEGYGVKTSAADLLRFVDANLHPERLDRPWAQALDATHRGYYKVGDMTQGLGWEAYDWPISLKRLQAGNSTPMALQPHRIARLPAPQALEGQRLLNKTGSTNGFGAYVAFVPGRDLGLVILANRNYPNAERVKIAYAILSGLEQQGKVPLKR

O=C1N2CC=C(c3cnoc3)C(C2)N1OC(F)(F)C(=O)[O-].[Li+] (centres unmarked) [Example 6, Lithium difluoro-(4-isoxazol-4-yl-7-oxo-1,6-diaza-bicyclo[3.2.1]oct-3-en-6-yloxy)-acetate]
IC50 (AmpC P. aeruginosa): 4200 nM
IC50 (CTX-M-15): 1.7 nM
IC50 (TEM-1): 7.3 nM
IC50 (OXA-1): 1700 nM
IC50 (OXA-48): 3.7 nM
IC50 (OXA-15): 28 nM
IC50 (SHV-1): 18 nM
MIC [1]: 16 µg/mL
MIC [2]: > 32 µg/mL
MIC [3]: > 32 µg/mL
MIC [4]: 4 µg/mL
MIC [5]: 2 µg/mL
MIC [6]: 2 µg/mL
MIC [7]: 32 µg/mL
MIC [8]: 2 µg/mL
MIC (E. cloacae P99 (AmpC)): 4 µg/mL
MIC [9]: 4 µg/mL
MIC ([10]; BAA1898, read-out: MIC compounds of the invention alone): > 32 µg/mL
MIC [11]: > 32 µg/mL
MIC [12]: > 32 µg/mL
MIC [13]: > 32 µg/mL
MIC [14]: > 32 µg/mL
MIC [15]: 2 µg/mL
MIC [16]: 8 µg/mL
MIC [17]: > 32 µg/mL
MIC (E. coli RGN238 (OXA-1)): 16 µg/mL
MIC ([18]; CIP107051, read-out: MIC compounds of the invention alone): > 32 µg/mL
MIC [19]: > 32 µg/mL
MIC [20]: > 32 µg/mL
MIC [21]: 4 µg/mL
IC50 (AmpC (P99)): 1800 nM
IC50 (KPC-2): 460 nM
IC50 (OXA-11): 180 nM

O=C1N2CC=C(c3cnoc3)C(C2)N1OS(=O)(=O)[O-].[Na+] (centres unmarked) [Example 5, Sodium (7-oxo-4-isoxazol-4-yl-1,6-diaza-bicyclo[3.2.1]oct-3-en-6-yl) sulfate]
IC50 (AmpC P. aeruginosa): 1500 nM
IC50 (CTX-M-15; class (A), nitrocefin 200 μM, 30 min pre-incubation, read-out: IC50 β-lactamase CTX-M-15): 6.9 nM
IC50 (TEM-1): 11 nM
IC50 (OXA-1; class (D), nitrocefin 200 μM, 30 min pre-incubation, read-out: IC50 β-lactamase OXA-1): 450 nM
IC50 (OXA-48; class (D), nitrocefin 200 μM, 30 min pre-incubation, read-out: IC50 β-lactamase OXA-48): 5.7 nM
IC50 (OXA-15): 94 nM
IC50 (SHV-1): 25 nM
MIC [1]: 16 µg/mL
MIC ([2]; strain UFR74 (E. coli)): > 32 µg/mL
MIC [3]: > 32 µg/mL
MIC [4]: 16 µg/mL
MIC ([5]; strain UFR51 (E. cloacae)): 2 µg/mL
MIC [7]: > 32 µg/mL
MIC ([8]; strain UFR32 (E. coli)): 1 µg/mL
MIC (E. cloacae P99 (AmpC); strain P99 (E. cloacae)): 8 µg/mL
MIC ([9]; strain UFR39 (K. pneumoniae)): 2 µg/mL
MIC ([10]; BAA1898, strain BAA-1898 (K. pneumoniae), read-out: MIC compounds of the invention alone): > 32 µg/mL
MIC ([11]; strain 6299 (K. pneumoniae)): > 32 µg/mL
MIC [12]: > 32 µg/mL
MIC [13]: > 32 µg/mL
MIC ([14]; strain UFR77 (K. pneumoniae)): > 32 µg/mL
MIC ([15]; strain UFR18 (E. coli)): 1 µg/mL
MIC ([16]; strain UFR61O (E. coli)): 8 µg/mL
MIC ([17]; strain UFR24 (K. pneumoniae)): > 32 µg/mL
MIC (E. coli RGN238 (OXA-1); strain RGN238 (E. coli)): > 32 µg/mL
MIC ([18]; strain CIP107051 (P. aeruginosa), read-out: MIC compounds of the invention alone): > 32 µg/mL
MIC [19]: > 32 µg/mL
MIC [20]: > 32 µg/mL
MIC ([21]; strain 131119 (E. coli)): 16 µg/mL
IC50 (AmpC (P99)): 670 nM
IC50 (KPC-2; class (A), nitrocefin 200 μM, 30 min pre-incubation, read-out: IC50 β-lactamase KPC-2): 270 nM
IC50 (OXA-11): 2200 nM
